{
  "source": "patent US9790225B2",
  "about": "“4-amino-3-phenylamino-6-phenylpyrazolo[3,4-d]pyrimidine derivatives, their manufacture and their use as antiviral active substances” (Scandion Oncology A/S, priority 2011, dated 2017)",
  "key": {"[1]": {"tested_on": "48 rhinovirus types, coxsackie virus A21, enterovirus 70, echovirus 11", "conditions": "Pattick et al. 1999; cited from earlier work"}, "[2]": {"assay": "In vivo conversion of prodrug to 1H pyrazol compound (serum)", "conditions": "in the serum mainly only the final active ingredient (CRCV-340) can be proven", "from_the_text": "Also covered are pro pharmacons (prodrugs) of the compounds, especially those which are characterized by a substituent on the pyrazol heteroatom in position 1. It has been shown that such types of compounds are converted in vivo to the 1H pyrazol compound. As an example, compounds have been mentioned in respect of which the pyrazol heteroatom in position 1 is substituted by an imino(phenyl)methyl substituent, such as, for example, 1-[Imino(phenyl)methyl]-4-amino-3-(4-trifluormethyl-phenyl)amino-6-phenylpyrazolo[3,4-d]pyrimidine, also designated by the IUPAC name 1-benzylcarboximidoyl-6-phenyl-3-N-[4-(trifluormethyl)phenyl]-1H-pyrazolo[3,4-d]-pyrimidine-3,4-diamine. Here this relates to a by-product of the manufacture of the compound described above, CRCV-340, resulting from the reaction of the compound CRCV-340 with an excess of benzamidine in the reaction mixture and having the following formula: […]\nAlso included are the salts, solvates or solvates of the salts produced by the above compounds. Within the scope of this invention the preferred salts are physiologically harmless salts of the compounds relating to the invention. […]"}, "clinical CVB3 isolates": {"tested_on": "clinical CVB3 isolates", "assay": "Plaque-reduction test with clinical CVB3 isolates", "type": "cell-based", "conditions": "for IC50: Enterovirus B, CVB3", "from_the_text": "(§1) Objective: To determine the antiviral effective spectrum of CRCV-340 in respect of 50 different human rhinovirus serotypes and CVB3 patient isolates.\n(§2) Tests: The 50 HRV serotypes and 20 clinical CVB3 isolates were reproduced in HeLa, HeLa Wis and/or LF cells, their titre determined and the serotype verified using sequencing. Accordingly zpE (zytopathic effect) inhibitory tests with the HRV or plaque-reductions tests with the CVB3 isolates were established. In the corresponding antiviral tests dose effect investigations with Ref-3 and CRCV-340 were carried out. Tables 5 and 6 give an overview of the mean 50% inhibitory concentrations."}, "plasma protein": {"tested_on": "plasma protein", "assay": "Plasma protein binding and release in vitro (ADMET)", "type": "in vitro ADME", "from_the_text": "(§3) Objective: To investigate the Absorption, Distribution, Metabolism, Excretion and Toxicity (abbreviated as: ADMET) of OBR 5-340 in vitro, as well as in vitro tests on the plasma protein binding and the stability in the plasma and in liver microsomes. Tests: The In vitro tests performed with CRCV-340 as well as the data obtained are summarised in Table 2 in comparison with Ref. 2."}, "CVB3 31-1-93 [3]": {"tested_on": "CVB3 31-1-93", "assay": "Mouse model of CVB3-induced chronic myocarditis", "type": "in vivo", "conditions": "CVB3 31-1-93-infected NMRI mice, 100 mg/kg once or twice a day over 7 days", "method": "Investigations: The effect of CRCV-340 was investigated in the model of CVB 3-induced myocarditis in 8-week old male NMRI mice. In addition CVB3 31-1-93 or CVB3 H3-infected animals received once or twice a day 100 mg/kg of the substance in 50% or 20% PEG-400 in 1% CMC in water (placebo) administered over 7 days. Parameters to evaluate the therapeutic effect included changes in body weight, general condition, virus titre in heart and pancreas tissue as well as histopathological changes in the heart and pancreas. Pseudo-infected, placebo-treated or CRCV-340-treated animals served as a negative control and infected, placebo- or pleconaril-treated animals as a positive control over the course of the infection."}, "[4]": {"assay": "Plasma stability in vitro (ADMET)", "type": "in vitro ADME", "from_the_text": "as §3"}, "[5]": {"assay": "Pharmacokinetics in mice, single per os application, HPLC of plasma", "type": "in vivo", "method": "Tests: Substance and reference substance were applied respectively once in a concentration of 100 mg/kg KG, in 0.5 ml of a 10% Cremophor solution per os to the mice, After 0.5, 1, 2, 3, 4, 5, 6 and 7 hrs serum was taken and by means of HPLC analysis the concentrations of CRCV-340, Ref-2 and Ref-3 determined in the plasma of the mice.\nUsing the substance concentrations in the blood plasma determined by HPLC the pharmacokinetic parameters of the substances were calculated using the computer program ESTRIP (Table 3)."}, "[6]": {"assay": "Subacute toxicity in mice over 28 days, intragastric", "type": "in vivo", "conditions": "mice, 12.5, 50 or 200 mg/kg once a day over 28 days", "method": "Objective: To determine the subacute toxicity in mice in order to reveal possible side effects e.g. on general condition, weight, internal organs and metabolism, which could arise with subacute administration of CRCV-340 over 28 days.\nTests: Thus male and female mice weighing approx. 20 g received 12.5, 50 or 200 mg/kg of the substance CRCV-340 in a Cremophor formulation or the control group received Cremophor once a day over 28 days intragastrically administered via a tube. During the total period of the experiment the condition of the coat and the mucous membranes, the excreta and the general condition were assessed. The recording of the weight took place on days 7, 14, 21 and 28. Approx. 24 hrs. after the last substance dose the sense of direction of the animals was examined. The following biochemical parameters in the serum were analysed: protein content, urea, creatinine, the serum activity of aspartate aminotransferase, alanine aminotransferase and alkaline phosphatase. The haemoglobin concentration, hematocrit, the number of red and white blood cells as well as the platelets was determined in the blood smear. At the end of the experiment the mice were killed under anaesthetic and dissected, the condition of the internal organs were assessed macroscopically, the organ weight determined and samples for subsequent histological tests put into formalin."}, "[7]": {"assay": "Stability in liver microsomes in vitro (ADMET)", "type": "in vitro ADME", "from_the_text": "as §3"}, "[8]": {"tested_on": "human rhinovirus serotypes (HRV)", "assay": "zpE (cytopathic effect) inhibitory test with HRV serotypes", "type": "cell-based", "conditions": "for IC50: Human rhinovirus sp.", "from_the_text": "as §1, §2"}, "CVB3 31-1-93 [9]": {"tested_on": "CVB3 31-1-93", "assay": "Lethal mouse model of CVB3-induced myocarditis", "type": "in vivo", "conditions": "CVB3 31-1-93-infected BALB/c mice, 100 mg/kg twice a day over 7 days", "method": "Investigations: The effect of the development candidate CRCV-340 was examined following testing of the infection dose in the model of the CVB 3-induced myocarditis in 6-7 weeks old male BALB/c mice. In addition CVB3 31-1-93 or CVB3 H3-infected animals received twice a day 100 mg/kg of the substance in 20% PEG-400 in 1% CMC in water (placebo) administered over 7 days. Changes in body weight, general condition and the lethality defined through the surrogate marker 25% loss of body weight served as parameters to evaluate the therapeutic effect. Pseudo-infected, placebo-treated or CRCV-340-treated animals represented the negative control and infected, placebo- or pleconaril-treated animals the positive control over the course of the infection."}, "[10]": {"assay": "Acute toxicity in mice after single peroral administration", "type": "in vivo", "method": "Tests: The acute toxicity of the substance CRCV-340 was tested in mice 19.5-20.5 g in weight, which was administered per os 40, 60, 80 or 120 mg substance/mouse (per 5 mice per substance and concentration). This corresponds to a dose of approx. 2 g, 3 g, 4 g or 6 g per kilogramme body weight. The toxic effects observed in the result correlated to the substance dose administered."}, "[11]": {"conditions": "in vivo; cited from earlier work"}, "[12]": {"conditions": "in vivo; cited from earlier work", "remark": "listed apart in the source"}, "[13]": {"conditions": "cited from earlier work"}, "[14]": {"conditions": "in vivo; cited from earlier work", "remark": "listed apart in the source"}, "[15]": {"conditions": "mice, single intragastric 100 mg/kg"}},
  "note": "Read-outs that look alike come from different tables or passages of the source. Marks after values point to notes of the source that are not given here.",
  "data": [
    {"smiles": "CCOC(=O)/C=C/[C@H](C[C@@H]1CCNC1=O)NC(=O)[C@@H](CC(=O)[C@@H](NC(=O)c1cc(C)on1)C(C)C)Cc1ccc(F)cc1", "note": "[AG 7088]", "values": [
      {"measurement": "Active concentration range in cell culture", "setting": "[1]", "value": "nanomolar concentration range"}
    ]},
    {"smiles": "N=C(c1ccccc1)n1nc(Nc2ccc(C(F)(F)F)cc2)c2c(N)nc(-c3ccccc3)nc21", "note": "[CRCV-340 prodrug, 1-[Imino(phenyl)methyl]-4-amino-3-(4-trifluormethyl-phenyl)amino-6-phenylpyrazolo[3,4-d]pyrimidine]", "values": [
      {"measurement": "Conversion in vivo into the target compound", "setting": "[2]", "value": "very easily converted into the target compound"}
    ]},
    {"smiles": "Nc1nc(-c2ccccc2)nc2[nH]nc(Nc3ccc(C(F)(F)F)cc3)c12", "note": "[CRCV-340, 4-amino-3-(4-trifluormethyl-phenyl)amino-6-phenylpyrazolo[3,4-d]pyrimidine]", "values": [
      {"measurement": "IC50", "setting": "clinical CVB3 isolates; mean over 19 pleconaril-sensitive isolates, read-out: IC50 Pleconaril-sensitive CVB3 (n = 19), mean", "value": 5.16, "unit": "µM"},
      {"measurement": "IC50", "setting": "clinical CVB3 isolates; mean over all 20 clinical isolates, read-out: IC50 all CVB3 (n = 20), mean", "value": 4.97, "unit": "µM"},
      {"measurement": "IC50", "setting": "clinical CVB3 isolates; the one pleconaril-resistant isolate, read-out: IC50 Pleconaril-resistant CVB3 (n = 1)", "value": 1.39, "unit": "µM"},
      {"measurement": "Number of sensitive CVB3", "setting": "clinical CVB3 isolates; of 20 clinical isolates, CRCV-340 maximum tested concentration 13.5 μM", "value": "18*"},
      {"measurement": "Release of plasma protein, comparison in words", "setting": "plasma protein; in comparison with Ref-2", "value": "increased release of plasma protein"},
      {"measurement": "Binding to plasma protein", "setting": "plasma protein; in vitro", "value": 96.7, "unit": "%"},
      {"measurement": "Release of plasma protein", "setting": "plasma protein; in vitro", "value": 122.3, "unit": "%"},
      {"measurement": "Therapeutic effect (body weight, general condition, virus titre in heart and pancreas, histopathology)", "setting": "CVB3 31-1-93 [3]", "value": "effective"},
      {"measurement": "Plasma stability", "setting": "[4]", "value": 100.0, "unit": "%"},
      {"measurement": "Bioavailability in mice, comparison in words", "setting": "[5]; compared with Ref-2 and Ref-3 / state-of-the-art substances", "value": "significantly better bioavailability"},
      {"measurement": "Cmax (maximum concentration in the blood)", "setting": "[5]; [15]", "value": 1.2544, "unit": "µg/mL"},
      {"measurement": "MRT (mean residence time)", "setting": "[5]; [15]", "value": 3.54, "unit": "h"},
      {"measurement": "half-life", "setting": "[5]; mouse, in vivo, po, mice, single intragastric 100 mg/kg, read-out: T1/2 (half life) (converted)", "value": 3.54, "unit": "h"},
      {"measurement": "AUC(0-inf)", "setting": "[5]; mouse, plasma, po, mice, single intragastric 100 mg/kg, read-out: AUC0-∞ (area under curve)", "value": 9.6, "unit": "µg·h/mL"},
      {"measurement": "Tmax", "setting": "[5]; mouse, plasma, po, mice, single intragastric 100 mg/kg, read-out: Tmax (time to reach the maximum concentration in the blood)", "value": 3, "unit": "h"},
      {"measurement": "Tolerance on subacute administration", "setting": "[6]", "value": "extremely good tolerance"},
      {"measurement": "Stability in liver microsomes, comparison in words", "setting": "[7]; compared with Ref-2 / state-of-the-art substances", "value": "better stability in liver microsomes"},
      {"measurement": "Stability in liver microsomes", "setting": "[7]; in vitro", "value": 112.0, "unit": "%"},
      {"measurement": "Effective spectrum in respect of HRV in comparison to Ref-3", "setting": "[8]; 50 HRV serotypes", "value": "significantly broader"},
      {"measurement": "IC50", "setting": "[8]; read-out: IC50 Pleconaril-resistant HRV (n = 5), mean", "value": 22.6, "unit": "µM"},
      {"measurement": "IC50", "setting": "[8]; read-out: IC50 Pleconaril-sensitive HRV (n = 45), mean", "value": 26.1, "unit": "µM"},
      {"measurement": "IC50", "setting": "[8]; read-out: IC50 all HRV (n = 50), mean", "value": 25.7, "unit": "µM"},
      {"measurement": "Number of sensitive HRV", "setting": "[8]; of 50 examined serotypes", "value": 49},
      {"measurement": "Therapeutic effect (body weight, general condition, lethality)", "setting": "CVB3 31-1-93 [9]", "value": "effective"},
      {"measurement": "LD50 at 72 h", "setting": "[10]; mouse, in vivo, single peroral administration", "value": 3120, "unit": "mg/kg"},
      {"measurement": "LD50", "setting": "[10]; single peroral administration", "value": 62.4, "unit": "mg/mouse"},
      {"measurement": "Dead/Surviving 72 hrs after administration", "setting": "[10]; single peroral dose 40 mg/mouse", "value": "1/5"},
      {"measurement": "Dead/Surviving 72 hrs after administration", "setting": "[10]; single peroral dose 60 mg/mouse", "value": "1/5"},
      {"measurement": "Dead/Surviving 72 hrs after administration", "setting": "[10]; single peroral dose 80 mg/mouse", "value": "3/5"},
      {"measurement": "Dead/Surviving 72 hrs after administration", "setting": "[10]; single peroral dose 120 mg/mouse", "value": "5/5"}
    ]},
    {"smiles": "Cc1cc(CCCCCOc2c(Cl)cc(C3=NCCO3)cc2Cl)on1", "note": "[WIN 54954]", "values": [
      {"measurement": "Metabolisation and excretion", "setting": "[11]", "value": "fast metabolisation and excretion"},
      {"measurement": "Side effects", "setting": "[12]", "value": "skin rash"}
    ]},
    {"smiles": "CCC(=O)C(CCCCCCOc1ccc(OC)cc1Cl)C(=O)CC", "note": "[arildone]", "values": [
      {"measurement": "Solubility", "setting": "[13]", "value": "Poor solubility"},
      {"measurement": "Bioavailability", "setting": "[14]", "value": "low bioavailability"}
    ]}
  ]
}
